Like-named read-outs stand apart in the source and are kept apart here.
Target: T1, MST1 (Homo sapiens, UniProt Q13043)
T1 sequence (Q13043 1-487): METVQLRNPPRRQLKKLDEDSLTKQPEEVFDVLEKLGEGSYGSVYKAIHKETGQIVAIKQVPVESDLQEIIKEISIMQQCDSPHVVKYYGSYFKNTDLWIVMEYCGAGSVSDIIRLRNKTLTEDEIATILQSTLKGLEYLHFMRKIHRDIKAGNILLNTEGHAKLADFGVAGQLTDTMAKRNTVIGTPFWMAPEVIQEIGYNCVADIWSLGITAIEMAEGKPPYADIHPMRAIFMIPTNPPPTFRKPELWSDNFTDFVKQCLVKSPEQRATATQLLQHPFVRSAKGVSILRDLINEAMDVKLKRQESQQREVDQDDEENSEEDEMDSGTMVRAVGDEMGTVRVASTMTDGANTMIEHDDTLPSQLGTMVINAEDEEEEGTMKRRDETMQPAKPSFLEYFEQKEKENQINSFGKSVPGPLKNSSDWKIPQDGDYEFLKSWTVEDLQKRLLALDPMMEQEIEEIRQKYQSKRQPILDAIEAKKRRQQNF
Experiment: In vitro measurement of MST1 inhibition (Z′-Lyte kinase assay)
Type: biochemical

[1] = 1 μM ATP, read-out: IC50 (μM) 1 μM ATP
[2] = 50 μM ATP, read-out: IC50 (μM) 50 μM ATP

IC50 [1]	IC50 [2]	Structure (SMILES)
< 0.01 µM	< 0.01 µM	CC1CNc2cc(-c3nc(-c4ccc(S(=O)(=O)N(C)C5CC5)cc4)cnc3N)ccc2C(=O)N1 (centres unmarked) [4-(5-amino-6-(3-methyl-5-oxo-2,3,4,5-tetrahydro-1H-benzo[e][1,4]diazepin-8-yl)pyrazin-2-yl)-N-cyclopropyl-N-methylbenzenesulfonamide]
< 0.05 µM	< 0.01 µM	Nc1ncc(-c2ccc(S(=O)(=O)NC3CC3)cc2)nc1-c1ccc2c(c1)C1(CC1)NC2=O [4-(5-amino-6-(3′-oxospiro[cyclopropane-1,1′-isoindolin]-6′-yl)pyrazin-2-yl)-N-cyclopropylbenzenesulfonamide]
< 0.01 µM	< 0.01 µM	[2H]C1([2H])CNC(=O)c2ccc(-c3nc(-c4ccc(S(=O)(=O)N(C)C5CC5)cc4)cnc3N)cc21 [4-(5-amino-6-(4,4-dideutero-1-oxo-1,2,3,4-tetrahydroisoquinolin-6-yl)pyrazin-2-yl)-N-cyclopropyl-N-methylbenzenesulfonamide]
< 0.01 µM	< 0.01 µM	[2H]C1([2H])CNC(=O)c2ccc(-c3nc(-c4ccc(S(=O)(=O)N(C5CC5)C([2H])([2H])[2H])cc4)cnc3N)cc21 [4-(5-amino-6-(4,4-dideutero-1-oxo-1,2,3,4-tetrahydroisoquinolin-6-yl)pyrazin-2-yl)-N-cyclopropyl-N-trideuteromethyl-benzenesulfonamide]
< 0.01 µM	< 0.01 µM	[2H]C1([2H])CNC(=O)c2ccc(-c3nc(-c4ccc(S(=O)(=O)NC5CC5)cc4)cnc3N)cc21 [4-(5-amino-6-(4,4-dideutero-1-oxo-1,2,3,4-tetrahydroisoquinolin-6-yl)pyrazin-2-yl)-N-cyclopropylbenzenesulfonamide]
< 0.15 µM	< 0.15 µM	CC1(C)C(=O)NC(=O)c2ccc(-c3nc(-c4ccc(S(=O)(=O)NC5CC5)cc4)cnc3N)cc21 [4-(5-amino-6-(4,4-dimethyl-1,3-dioxo-1,2,3,4-tetrahydroisoquinolin-6-yl)pyrazin-2-yl)-N-cyclopropylbenzenesulfonamide]
< 0.01 µM	< 0.01 µM	Cc1cc(-c2cnc(N)c(-c3ccc4c(c3)C(C)(C)CNC4=O)n2)ccc1S(=O)(=O)NC1CC1 [4-(5-amino-6-(4,4-dimethyl-1-oxo-1,2,3,4-tetrahydroisoquinolin-6-yl)pyrazin-2-yl)-N-cyclopropyl-2-methylbenzenesulfonamide]
< 0.01 µM	< 0.01 µM	CN(C1CC1)S(=O)(=O)c1ccc(-c2cnc(N)c(-c3ccc4c(c3)C(C)(C)CNC4=O)n2)cc1 [4-(5-amino-6-(4,4-dimethyl-1-oxo-1,2,3,4-tetrahydroisoquinolin-6-yl)pyrazin-2-yl)-N-cyclopropyl-N-methylbenzenesulfonamide]
< 0.01 µM	< 0.01 µM	CC1(C)CNC(=O)c2ccc(-c3nc(-c4ccc(S(=O)(=O)NC5CC5)cc4)cnc3N)cc21 [4-(5-amino-6-(4,4-dimethyl-1-oxo-1,2,3,4-tetrahydroisoquinolin-6-yl)pyrazin-2-yl)-N-cyclopropylbenzenesulfonamide]
< 0.01 µM	< 0.01 µM	CN(C1CC1)S(=O)(=O)c1ccc(-c2cnc(N)c(-c3ccc4c(O)ncc(Br)c4c3)n2)cc1 [4-(5-amino-6-(4-bromo-1-hydroxyisoquinolin-6-yl)pyrazin-2-yl)-N-cyclopropyl-N-methylbenzenesulfonamide]
< 0.01 µM	< 0.01 µM	CN(C1CC1)S(=O)(=O)c1ccc(-c2cnc(N)c(-c3ccc4c(c3)NCCNC4=O)n2)cc1 [4-(5-amino-6-(5-oxo-2,3,4,5-tetrahydro-1H-benzo[e][1,4]diazepin-8-yl)pyrazin-2-yl)-N-cyclopropyl-N-methylbenzenesulfonamide]
< 0.01 µM	< 0.01 µM	Nc1ncc(-c2ccc(S(=O)(=O)NC3CC3)cc2)nc1-c1ccc2c(c1)NCCNC2=O [4-(5-amino-6-(5-oxo-2,3,4,5-tetrahydro-1H-benzo[e][1,4]diazepin-8-yl)pyrazin-2-yl)-N-cyclopropylbenzenesulfonamide]
< 0.05 µM	< 0.01 µM	Cc1cc(-c2cnc(N)c(-c3ccc4c(c3)OCCNC4=O)n2)ccc1S(=O)(=O)NC1CC1 [4-(5-amino-6-(5-oxo-2,3,4,5-tetrahydrobenzo[f][1,4]oxazepin-8-yl)pyrazin-2-yl)-N-cyclopropyl-2-methylbenzenesulfonamide]
< 0.01 µM	< 0.01 µM	CN(C1CC1)S(=O)(=O)c1ccc(-c2cnc(N)c(-c3ccc4c(c3)OCCNC4=O)n2)cc1 [4-(5-amino-6-(5-oxo-2,3,4,5-tetrahydrobenzo[f][1,4]oxazepin-8-yl)pyrazin-2-yl)-N-cyclopropyl-N-methylbenzenesulfonamide]
< 0.01 µM	< 0.01 µM	Nc1ncc(-c2ccc(S(=O)(=O)NC3CC3)cc2)nc1-c1ccc2c(c1)OCCNC2=O [4-(5-amino-6-(5-oxo-2,3,4,5-tetrahydrobenzo[f][1,4]oxazepin-8-yl)pyrazin-2-yl)-N-cyclopropylbenzenesulfonamide]
	< 0.05 µM	Nc1ncc(-c2ccc(S(=O)(=O)NC3CC3)cc2)nc1-c1ncc(-c2ccccc2)[nH]1 [4-(5-amino-6-(5-phenyl-1H-imidazol-2-yl)pyrazin-2-yl)-N-cyclopropylbenzenesulfonamide]
< 0.01 µM	< 0.01 µM	CN(C1CC1)S(=O)(=O)c1ccc(-c2cnc(N)c(-c3cc4c(cn3)C(=O)NCC4)n2)cc1 [4-(5-amino-6-(8-oxo-5,6,7,8-tetrahydro-2,7-naphthyridin-3-yl)pyrazin-2-yl)-N-cyclopropyl-N-methylbenzenesulfonamide]
< 0.01 µM	< 0.01 µM	Nc1ncc(-c2ccc(S(=O)(=O)NC3CC3)cc2)nc1-c1cc2c(cn1)C(=O)NCC2 [4-(5-amino-6-(8-oxo-5,6,7,8-tetrahydro-2,7-naphthyridin-3-yl)pyrazin-2-yl)-N-cyclopropylbenzenesulfonamide]
< 0.01 µM	< 0.01 µM	N#Cc1ccc(-c2cnc(N)c(-c3cc4c(cn3)C(=O)NCC4)n2)cc1 [4-(5-amino-6-(8-oxo-5,6,7,8-tetrahydro-2,7-naphthyridin-3-yl)pyrazin-2-yl)benzonitrile]
< 0.15 µM	< 0.05 µM	CN(C1CC1)S(=O)(=O)c1ccc(-c2cnc(N)c(C#Cc3ccnc(O)c3)n2)cc1 [4-(5-amino-6-((2-hydroxypyridin-4-yl)ethynyl)pyrazin-2-yl)-N-cyclopropyl-N-methylbenzenesulfonamide]
< 0.05 µM	< 0.01 µM	CC(=O)N1CC(C)(C)c2cc(-c3nc(-c4ccc(S(=O)(=O)N(C)C5CC5)cc4)cnc3N)ccc21 [4-(6-(1-acetyl-3,3-dimethylindolin-5-yl)-5-aminopyrazin-2-yl)-N-cyclopropyl-N-methylbenzenesulfonamide]
< 0.05 µM	< 0.01 µM	CN(C1CC1)S(=O)(=O)c1ccc(-c2cc(-c3ccc4c(c3)CCNC4=O)c(N)nn2)cc1 [4-(6-amino-5-(1-oxo-1,2,3,4-tetrahydroisoquinolin-6-yl)pyridazin-3-yl)-N-cyclopropyl-N-methylbenzenesulfonamide]
< 0.01 µM	< 0.01 µM	Nc1ncc(-c2ccc(S(=O)(=O)NC3CC3)c(Cl)c2)cc1-c1ccc2c(c1)CCNC2=O [4-(6-amino-5-(1-oxo-1,2,3,4-tetrahydroisoquinolin-6-yl)pyridin-3-yl)-2-chloro-N-cyclopropylbenzenesulfonamide]
< 0.05 µM	< 0.01 µM	Nc1ncc(-c2ccc(S(=O)(=O)N(CC(F)(F)F)C3CCC3)cc2)cc1-c1ccc2c(c1)CCNC2=O [4-(6-amino-5-(1-oxo-1,2,3,4-tetrahydroisoquinolin-6-yl)pyridin-3-yl)-N-cyclobutyl-N-(2,2,2-trifluoroethyl)benzenesulfonamide]
< 0.01 µM	< 0.01 µM	Nc1ncc(-c2ccc(S(=O)(=O)NC3CCC3)cc2)cc1-c1ccc2c(c1)CCNC2=O [4-(6-amino-5-(1-oxo-1,2,3,4-tetrahydroisoquinolin-6-yl)pyridin-3-yl)-N-cyclobutylbenzenesulfonamide]
< 0.01 µM	< 0.01 µM	Nc1ncc(-c2ccc(S(=O)(=O)NC3CC3)c(F)c2)cc1-c1ccc2c(c1)CCNC2=O [4-(6-amino-5-(1-oxo-1,2,3,4-tetrahydroisoquinolin-6-yl)pyridin-3-yl)-N-cyclopropyl-2-fluorobenzenesulfonamide]
< 0.01 µM	< 0.01 µM	Cc1cc(-c2cnc(N)c(-c3ccc4c(c3)CCNC4=O)c2)ccc1S(=O)(=O)N(C)C1CC1 [4-(6-amino-5-(1-oxo-1,2,3,4-tetrahydroisoquinolin-6-yl)pyridin-3-yl)-N-cyclopropyl-N,2-dimethylbenzenesulfonamide]
< 0.01 µM	< 0.01 µM	Nc1ncc(-c2ccc(S(=O)(=O)NC3CC3)cc2)cc1-c1ccc2c(c1)CCNC2=O [4-(6-amino-5-(1-oxo-1,2,3,4-tetrahydroisoquinolin-6-yl)pyridin-3-yl)-N-cyclopropylbenzenesulfonamide]
< 0.01 µM	< 0.01 µM	CCN(C)S(=O)(=O)c1ccc(-c2cnc(N)c(-c3ccc4c(c3)CCNC4=O)c2)cc1 [4-(6-amino-5-(1-oxo-1,2,3,4-tetrahydroisoquinolin-6-yl)pyridin-3-yl)-N-ethyl-N-methylbenzenesulfonamide]
< 0.01 µM	< 0.01 µM	CN(C1CC1)S(=O)(=O)c1ccc(-c2cnc(N)c(-c3ccc4c(=O)[nH]ccc4c3)c2)cc1 [4-(6-amino-5-(1-oxo-1,2-dihydroisoquinolin-6-yl)pyridin-3-yl)-N-cyclopropyl-N-methylbenzenesulfonamide]

Reference: patent publication US8440652B2, “MST1 kinase inhibitors and methods of their use” (Lexicon Pharmaceuticals, Inc., priority 2011, dated 2013)
